Results on 16 molecules are retold here after patent US10913750B2, “Tubulin-binding compounds, compositions and uses related thereto” (The Regents of the University of California, priority 2015, dated 2021).

The term IC50 denotes the point on the concentration scale where inhibition reaches its midpoint. Low readings indicate greater potency, high ones weaker potency.

SMILES strings stand for the structures.

The test system of assay [1] is HeLa cells. Nature of the assay: CellTiter-Glo cell viability, HeLa cells. In kind it is cell-based. Particulars: Homo sapiens; HeLa cells, 72 hours, CellTiter-Glo. The method, then: (§1) The cell viability IC50 of each compound was determined using Promega CellTiter-Glo Luminescent Cell Viability Assay kit by measuring the total ATP levels to quantify the number of metabolically active cells upon drug treatment as described in Crouch et al., J Immunol Methods 1993, 160, (1), 81-8. Briefly, the compounds were suspended in DMSO at 10 mM and diluted in 384 plates (20 μl/well in DMSO) in triplicate by a 14-point titration (12 nM to 100 μM). 50 μl of HeLa cells or patient derived glioblastoma cells (HK-309) (2000 cells/well) were then treated with the prepared dilutions of the drugs (0.5 μl) and incubated at 37° C. and 5% CO2. 72 hours later 50 μl of CellTiter-Glo reagent was added to each well followed by a 2 minutes shaking and a 10-minute incubation to lyse the cells. The relative luminescent intensity units (RLU) of each well was measured using a Tecan M1000 microplate reader (Tecan Group Ltd.) with its green filter and 1 second integration time.
(§2) Cells used in Example 2 and other examples disclosed herein were cultured as follows: Adherent HeLa cells and patient derived glioblastoma cells were grown with 5% CO2 at 37° C. in F12:DMEM 50:50 medium (Invitrogen) containing 10% FBS and 1% penicillin/streptomycin. To obtain HeLa cells synchronized in mitosis, cycling cells were treated with 2 mM thymidine (Sigma-Aldrich) for eighteen hours, washed three times with PBS, and released into fresh media until they entered mitosis eight hours post-release. Patient-derived glioblastoma cells (HK-309) were collected and grown with approval from the UCLA Institutional Review Board. HK-309 was derived from a recurrent glioblastoma taken from a person. The cells were initially propagated as cancer stem cell-containing spheres in serum-free medium containing basic fibroblast growth factor and epidermal growth factor (Preprotech) as described previously by Visnyei et al., Mol Cancer Ther 2011, 10, (10), 1818-28.
For mitotic arrest IC50s, cells were treated with a twenty-point-2-fold-titration (190 pM to 10 μM) of each compound tested for 20 hours. For cell viability IC50s, cells were treated with a fourteen-point-2-fold-titration (12.2 nM to 100 μM). Mitotic arrest IC50 was determined by measuring the percent G2/M arrest using the Vybrant DyeCycle Green (Invitrogen) assay described above. Cell viability IC50 was determined using the CellTiter-Glo Assay (Promega), which measures total ATP levels. Plates were read with a Tecan M1000 micro-plate reader at 540 nm. The CDD software was used for generating IC50 and IC90 values.

Assay [2] relates to HeLa cells. The assay can be described thus: Microtubule stability by immunofluorescence microscopy. The format is cell-based. Particulars: increasing concentrations, anti-α-tubulin staining. The method, then: Next, microtubule stability was analyzed in HeLa cells treated with increasing concentrations of each of these three compounds by fixing the cells with 4% paraformaldehyde, staining them with Hoechst 33342 (DNA dye) to visualize their DNA and anti-α-tubulin antibodies to visualize microtubule structures and then imaging them by immunofluorescence microscopy.

The test system of assay [3] is patient-derived glioblastoma cells (HK-309). The assay can be described thus: CellTiter-Glo cell viability, patient-derived glioblastoma cells. The format is cell-based. The note with it: HK-309, 72 hours. The procedure: as §1, §2
In general terms: In ATP-based viability assays light output follows the ATP content of the culture.

For assay [4], the target named is T1, tubulin (Sus scrofa, UniProt P02554).
T1 construct: purchased Cytoskeleton Inc. BK011P
Nature of the assay: In vitro tubulin polymerization assay (HTS-tubulin polymerization kit, Cytoskeleton). In kind it is biochemical. The note with it: 3 μM compound, fluorescence, 70 minutes at 37° C. The procedure: 1.5 ul of 10× strength compound, 20 μl of tubulin solution and Triton X-100 at a final concentration of 0.01% were added to each well in a 384 well plate. The reactions were assembled on ice to prevent tubulin pre-polymerization. For kinetic measurements, microtubule polymerization was monitored by reading the fluorescence at 420 nm (due to the incorporation of a fluorescent reporter into microtubules as polymerization occurs) every ten seconds using a Tecan M1000 microplate reader (FIG. 6B). […] Fluorescence increased as polymerization occurred, due to the incorporation of 4′,6-diamidino-2-phenylindole. Fluorescence was monitored every minute for 70 minutes at 37° C.
Tubulin polymerization reactions were carried out according to the manufacturer (Cytoskeleton, BK011P) in the presence of 3 μM colchicine, MI-181, taxol or DMSO. Polymerization was monitored with a Tecan M1000 micro-plate reader at 420 nm for 70 minutes at 37° C. The results are depicted in FIG. 11.

Assay [5] concerns M308. Nature of the assay: Melanoma colony formation, M308. In kind it is cell-based. The note with it: 10 nM, M308 (second value of pair). The procedure:
(§3) To determine if MI-181 had broad anti-cancer activity, we treated a diverse panel of cancer cell lines including cervical adenocarcinoma (HeLa), breast adenocarcinoma (MCF7), melanoma (M233), osteosarcoma (U205), acute lymphoblastic leukemia (CCRF-CEM), non-small cell lung carcinoma (NCI-H460), and breast adenocarcinoma (MCF7) with MI-181 and determined its cell viability IC50 (FIGS. 13A and 13B). […] Therefore, the efficacy of MI-181 was analyzed in a panel of melanoma cell lines with defined genetic backgrounds including BRAF^V600E and NRAS^Q61L mutations and varied sensitivities to Vemurafenib (BRAF inhibitor) and Trametinib (MEK inhibitor), which are currently used to treat BRAF^V600E melanomas^43,44 (FIG. 10c). […] As a general trend BRAF^V600E cell lines were slightly more sensitive than NRAS^Q61L cell lines and MI-181 was effective in Vemurafenib and Trametinib resistant cell lines (FIG. 10c and Table 3). Finally, we tested the ability of MI-181 to inhibit melanoma colony formation using the M233 and M308 cell lines (both resistant to Vemurafenib). Indeed, MI-181 was a potent inhibitor of colony formation (percentage colony formation for 10 nM MI-181=0.2±0.1 and 0.8±0.7; for 10 nM colchicine=0.1±0.06 and 1.5±0.5; and for 10 nM Vemurafenib=94±7 and 102±5) (FIG. 10d). Thus, MI-181 is a potent inhibitor of melanoma cell lines.

Assay [6] has as its system M233. The assay can be described thus: Melanoma colony formation, M233. The note with it: 10 nM, M233 (first value of pair). In kind it is cell-based. The method, then: as §3

T1 sequence (P02554 whole entry): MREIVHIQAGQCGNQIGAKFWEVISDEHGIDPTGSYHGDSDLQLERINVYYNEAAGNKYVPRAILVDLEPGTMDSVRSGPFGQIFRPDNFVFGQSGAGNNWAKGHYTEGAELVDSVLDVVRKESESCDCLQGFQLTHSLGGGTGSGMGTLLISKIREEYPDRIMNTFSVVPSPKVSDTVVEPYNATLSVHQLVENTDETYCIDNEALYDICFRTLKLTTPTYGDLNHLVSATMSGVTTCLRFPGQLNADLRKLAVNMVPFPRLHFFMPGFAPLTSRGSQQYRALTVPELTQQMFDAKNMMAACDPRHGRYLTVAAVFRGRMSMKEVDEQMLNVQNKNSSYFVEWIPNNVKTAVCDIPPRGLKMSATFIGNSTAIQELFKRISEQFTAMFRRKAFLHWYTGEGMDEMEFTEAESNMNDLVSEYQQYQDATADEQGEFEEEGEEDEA
T1 sequence (P02550 whole entry partner): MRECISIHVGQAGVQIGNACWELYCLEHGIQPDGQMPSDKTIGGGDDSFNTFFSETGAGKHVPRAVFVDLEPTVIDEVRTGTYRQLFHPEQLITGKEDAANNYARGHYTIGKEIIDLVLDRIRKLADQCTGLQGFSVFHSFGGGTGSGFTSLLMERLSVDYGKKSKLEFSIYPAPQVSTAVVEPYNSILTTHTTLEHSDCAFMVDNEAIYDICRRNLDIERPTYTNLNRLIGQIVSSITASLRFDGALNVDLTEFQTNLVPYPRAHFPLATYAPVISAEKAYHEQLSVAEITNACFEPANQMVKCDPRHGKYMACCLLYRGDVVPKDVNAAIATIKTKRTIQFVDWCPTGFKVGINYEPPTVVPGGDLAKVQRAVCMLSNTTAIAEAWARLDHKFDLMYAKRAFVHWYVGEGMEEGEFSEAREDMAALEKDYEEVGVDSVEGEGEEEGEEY

Turning to `CSc1ccc(/C=C/c2nc3sc4c(c3c(=O)[nH]2)CCCC4)cc1` [Compound 10e, (E)-2-(4-methylthiostyryl)-5,6,7,8-tetrahydrobenzo[4,5]thieno[2,3-d]pyrimidin-4(3H)-one], 6.31 µM corresponded to half-maximal inhibition in assay [1] (IC50).

In turn, `COc1ccc(/C=C/c2nc3sc4c(c3c(=O)[nH]2)CCCC4)cc1OC` [Compound 10k, (E)-2-(3,4-dimethoxystyryl)-5,6,7,8-tetrahydrobenzo[4,5]thieno[2,3-d]pyrimidin-4(3H)-one] came in with an IC50 in assay [1] greater than 100 µM.

With `O=c1[nH]c(/C=C/c2ccc(F)cc2F)nc2sc3c(c12)CCCC3` [Compound 10a, (E)-2-(2,4-difluorostyryl)-5,6,7,8-tetrahydrobenzo[4,5]thieno[2,3-d]pyrimidin-4(3H)-one], the IC50 in assay [1] turned out to be 0.246 µM; in assay [3], 0.283 µM. Also, the “microtubule stability in treated cells” value in assay [2] is reported as “destabilized in a drug dose-dependent manner”. The “inhibition of microtubule (tubulin) polymerization in vitro” value in assay [4] is listed as “potent inhibitors of microtubule polymerization similar to colchicine”.

Turning to `COc1ccc(/C=C/c2nc3sc4c(c3c(=O)[nH]2)CCCC4)cc1` [Compound 10h, (E)-2-(4-methoxystyryl)-5,6,7,8-tetrahydrobenzo[4,5]thieno[2,3-d]pyrimidin-4(3H)-one], the midpoint of inhibition in assay [1], the IC50, lay at 50.9 µM. This counts as double-digit micromolar.

For `COc1cc2c(c(OC)c1OC)-c1ccc(OC)c(=O)cc1[C@@H](NC(C)=O)CC2` [colchicine], the results for the percentage colony formation in assay [5] and in assay [6] were 1.5±0.5 and 0.1±0.06, respectively.

`O=c1[nH]c(/C=C/c2ccc(F)c(F)c2)nc2sc3c(c12)CCCC3` [Compound 10j, (E)-2-(3,4-difluorostyryl)-5,6,7,8-tetrahydrobenzo[4,5]thieno[2,3-d]pyrimidin-4(3H)-one] registered an IC50 in assay [1] greater than 100 µM.

Take `O=c1[nH]c(/C=C/c2ccc(Br)cc2)nc2sc3c(c12)CCCC3` [Compound 10i, (E)-2-(4-bromostyryl)-5,6,7,8-tetrahydrobenzo[4,5]thieno[2,3-d]pyrimidin-4(3H)-one]: the IC50 in assay [1] was greater than 100 µM.

`COc1cccc(/C=C/c2nc3sc4c(c3c(=O)[nH]2)CCCC4)c1` [Compound 10d, (E)-2-(3-methoxystyryl)-5,6,7,8-tetrahydrobenzo[4,5]thieno[2,3-d]pyrimidin-4(3H)-one]: the IC50 in assay [1] stood at 4.21 µM.

In the case of `O=c1[nH]c(/C=C/c2cc(F)ccc2F)nc2sc3c(c12)CCCC3` [Compound 10b, (E)-2-(2,5-difluorostyryl)-5,6,7,8-tetrahydrobenzo[4,5]thieno[2,3-d]pyrimidin-4(3H)-one], the IC50 in assay [1] came to 0.159 µM; in assay [3], 0.113 µM. In assay [2], the “microtubule stability in treated cells” value is reported as “destabilized in a drug dose-dependent manner”. Further, in assay [4], the “inhibition of microtubule (tubulin) polymerization in vitro” value is recorded as “potent inhibitors of microtubule polymerization similar to colchicine”.

In assay [1], `CCOc1ccc(/C=C/c2nc3sc4c(c3c(=O)[nH]2)CCCC4)cc1OC` [Compound 10f, (E)-2-(4-ethoxy-3-methoxystyryl)-5,6,7,8-tetrahydrobenzo[4,5]thieno[2,3-d]pyrimidin-4(3H)-one] registered an IC50 of 25.9 µM.

On to `CCCS(=O)(=O)Nc1ccc(F)c(C(=O)c2c[nH]c3ncc(-c4ccc(Cl)cc4)cc23)c1F` [Vemurafenib], for which the percentage colony formation in assay [5] is on record as 102±5; in assay [6], 94±7.

`Cc1cccc(/C=C/c2nc3sc4c(c3c(=O)[nH]2)CCCC4)c1` [Compound 10g, (E)-2-(3-methylstyryl)-5,6,7,8-tetrahydrobenzo[4,5]thieno[2,3-d]pyrimidin-4(3H)-one] came in with a 50% inhibitory concentration (IC50) in assay [1] greater than 100 µM.

Molecule `Cc1ccc(/C=C/c2nc3sc4c(c3c(=O)[nH]2)CCCC4)cc1` [Compound 10m, (E)-2-(4-methylstyryl)-5,6,7,8-tetrahydrobenzo[4,5]thieno[2,3-d]pyrimidin-4(3H)-one] had an IC50 in assay [1] greater than 100 µM.

With `CCOc1ccc(/C=C/c2nc3sc4c(c3c(=O)[nH]2)CCCC4)cc1` [Compound 10l, (E)-2-(4-ethoxystyryl)-5,6,7,8-tetrahydrobenzo[4,5]thieno[2,3-d]pyrimidin-4(3H)-one], the IC50 in assay [1] was greater than 100 µM.

`O=c1[nH]c(/C=C/c2ccc(F)cc2)nc2sc3c(c12)CCCC3` [Compound 10c, (E)-2-(4-fluorostyryl)-5,6,7,8-tetrahydrobenzo[4,5]thieno[2,3-d]pyrimidin-4(3H)-one] showed an IC50 in assay [1] of 1.11 µM.

`O=c1[nH]c(/C=C/c2ccccc2C(F)(F)F)nc2sc3c(c12)CCCC3` [Compound 10u]: in assay [1], the IC50 is greater than 100 µM.
